# Data: ChEMBL document CHEMBL1128130, “Hydroxamate inhibitors of human gelatinase B (92 kDa)” (Bioorg Med Chem Lett, 1995)
# Tests used:
# [1] = target: Matrix metalloproteinase-9 (Homo sapiens, UniProt P14780)
# Description: Inhibition of human Matrix metalloprotease-9
# Neutrophil collagenase = Neutrophil collagenase (Homo sapiens, UniProt P22894)
# Description: Inhibition of human Matrix metalloprotease-8
# Stromelysin-1 = Stromelysin-1 (Homo sapiens, UniProt P08254)
# Description: Inhibition of human fibroblast stromelysin, matrix metalloprotease-3
# Interstitial collagenase = target: T1, Interstitial collagenase (Homo sapiens, UniProt P03956)
# T1 sequence (P03956 whole entry): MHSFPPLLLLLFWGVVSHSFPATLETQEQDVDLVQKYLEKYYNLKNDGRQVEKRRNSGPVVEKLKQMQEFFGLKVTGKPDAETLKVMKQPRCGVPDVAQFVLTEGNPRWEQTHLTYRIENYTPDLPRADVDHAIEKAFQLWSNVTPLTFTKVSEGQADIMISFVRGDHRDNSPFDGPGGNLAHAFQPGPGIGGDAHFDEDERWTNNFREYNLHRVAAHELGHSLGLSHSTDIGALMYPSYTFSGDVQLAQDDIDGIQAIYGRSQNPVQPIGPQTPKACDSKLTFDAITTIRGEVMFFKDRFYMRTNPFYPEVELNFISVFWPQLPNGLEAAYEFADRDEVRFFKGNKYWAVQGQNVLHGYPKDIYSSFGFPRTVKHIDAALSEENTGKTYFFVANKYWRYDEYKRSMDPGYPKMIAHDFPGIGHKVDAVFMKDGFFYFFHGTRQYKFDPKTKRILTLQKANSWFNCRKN
# Description: Inhibition of human fibroblast collagenase, matrix metalloprotease-1
# Chain of Stromelysin-1 (P08254 whole entry): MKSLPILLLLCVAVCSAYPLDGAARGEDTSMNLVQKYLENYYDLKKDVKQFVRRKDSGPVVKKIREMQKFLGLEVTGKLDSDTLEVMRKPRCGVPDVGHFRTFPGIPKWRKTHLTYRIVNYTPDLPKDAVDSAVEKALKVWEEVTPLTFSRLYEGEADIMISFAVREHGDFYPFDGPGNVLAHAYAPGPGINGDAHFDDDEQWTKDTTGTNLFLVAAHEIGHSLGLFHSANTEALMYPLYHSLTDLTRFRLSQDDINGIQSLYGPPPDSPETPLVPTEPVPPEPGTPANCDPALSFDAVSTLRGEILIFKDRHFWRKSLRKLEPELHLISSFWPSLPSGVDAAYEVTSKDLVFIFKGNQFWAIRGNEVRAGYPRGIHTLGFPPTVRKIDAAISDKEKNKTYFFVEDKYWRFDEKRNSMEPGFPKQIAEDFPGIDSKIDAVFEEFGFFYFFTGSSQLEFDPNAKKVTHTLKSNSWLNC
# Chain of Matrix metalloproteinase-9 (P14780 whole entry): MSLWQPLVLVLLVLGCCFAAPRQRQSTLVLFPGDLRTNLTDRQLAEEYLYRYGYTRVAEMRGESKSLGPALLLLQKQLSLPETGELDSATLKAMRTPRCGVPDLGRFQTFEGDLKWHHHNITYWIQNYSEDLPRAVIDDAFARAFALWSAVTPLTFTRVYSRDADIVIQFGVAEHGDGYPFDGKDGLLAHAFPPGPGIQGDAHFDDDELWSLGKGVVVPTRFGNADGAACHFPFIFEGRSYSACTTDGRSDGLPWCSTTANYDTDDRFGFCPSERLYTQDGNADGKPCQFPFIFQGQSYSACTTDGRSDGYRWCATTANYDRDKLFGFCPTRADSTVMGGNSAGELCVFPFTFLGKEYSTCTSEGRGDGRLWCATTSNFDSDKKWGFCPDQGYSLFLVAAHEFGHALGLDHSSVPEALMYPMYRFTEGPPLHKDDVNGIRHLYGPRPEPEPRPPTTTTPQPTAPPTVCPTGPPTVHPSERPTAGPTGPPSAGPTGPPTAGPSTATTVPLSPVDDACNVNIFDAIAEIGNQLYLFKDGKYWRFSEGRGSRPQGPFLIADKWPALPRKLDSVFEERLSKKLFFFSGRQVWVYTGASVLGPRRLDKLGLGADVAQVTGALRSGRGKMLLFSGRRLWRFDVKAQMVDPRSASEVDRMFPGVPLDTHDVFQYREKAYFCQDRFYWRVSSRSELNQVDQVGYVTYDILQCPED
# Chain of Neutrophil collagenase (P22894 whole entry): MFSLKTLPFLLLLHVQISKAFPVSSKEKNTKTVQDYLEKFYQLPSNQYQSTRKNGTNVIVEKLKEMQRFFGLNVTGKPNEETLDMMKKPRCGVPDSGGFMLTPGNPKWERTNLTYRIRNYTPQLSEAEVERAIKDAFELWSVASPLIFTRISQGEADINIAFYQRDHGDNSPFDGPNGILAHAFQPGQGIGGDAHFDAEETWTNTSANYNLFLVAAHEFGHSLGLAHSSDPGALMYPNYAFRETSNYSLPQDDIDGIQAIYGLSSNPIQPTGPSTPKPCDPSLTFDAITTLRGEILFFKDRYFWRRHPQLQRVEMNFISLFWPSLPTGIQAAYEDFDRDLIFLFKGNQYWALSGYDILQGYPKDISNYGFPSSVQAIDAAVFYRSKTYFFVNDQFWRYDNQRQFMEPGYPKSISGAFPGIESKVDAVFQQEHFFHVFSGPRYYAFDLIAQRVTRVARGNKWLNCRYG
SMILES,Ki [1],Ki (Neutrophil collagenase),Ki (Stromelysin-1),Ki (Interstitial collagenase)
CNC(=O)[C@H](Cc1ccccc1)NC(=O)[C@@H](CC(=O)NO)CC(C)C,1.4 nM,–,–,–
CNC(=O)[C@H](Cc1ccccc1)NC(=O)[C@H](CCCCCCc1ccccc1)CC(=O)NO,1.3 nM,< 2 nM,11 nM,8400 nM
CNC(=O)CNC(=O)[C@H](CCCCOCc1ccccc1)CC(=O)NO,5600 nM,170 nM,3500 nM,> 100 nM
CCCCC[C@H](CC(=O)NO)C(=O)N[C@H](C(=O)N1CCCC1CO)C(C)C (some centres undefined),330 nM,190 nM,1700 nM,300 nM
CC[C@H](CC(=O)NO)C(=O)N[C@@H](Cc1c[nH]c2ccccc12)C(=O)NC,20 nM,100 nM,2700 nM,180 nM
CNC(=O)[C@@H](NC(=O)[C@H](CCCCOCc1ccccc1)CC(=O)NO)C(C)(C)C,11 nM,4.7 nM,39 nM,–
CNC(=O)[C@H](Cc1c[nH]c2ccccc12)NC(=O)[C@H](C)CC(=O)NO,500 nM,4200 nM,40000 nM,8500 nM
CNC(=O)[C@H](Cc1ccccc1)NC(=O)[C@H](CCCCOc1ccccc1)CC(=O)NO,1.2 nM,–,–,–
CCCCCc1ccc(OCCCC[C@H](CC(=O)NO)C(=O)N[C@H](C(=O)NC)C(C)(C)C)cc1,3.8 nM,–,–,–
CNC(=O)[C@H](Cc1ccccc1)NC(=O)[C@H](CCCCCOc1ccccc1)CC(=O)NO,0.31 nM,–,–,–
CNC(=O)[C@H](Cc1ccccc1)NC(=O)[C@H](CCCCOCc1ccccc1)CC(=O)NO,3.3 nM,–,–,–
CNC(=O)[C@H](Cc1c[nH]c2ccccc12)NC(=O)[C@@H](CC(=O)NO)CC(C)C [ILOMASTAT],–,–,46 nM,–
